Values of other authors, collected in patent US20100273711A1, “INDIVIDUALIZED CANCER TREATMENTS” (priority 2007, published 2010).

Assays:
SNU449 = details: cell line SNU449, HCC; cited from earlier work
SKBR3 = details: cell line SKBR3, breast ca; cited from earlier work
C8161 = details: cell line C8161, melanoma; cited from earlier work
ES-2 = details: cell line ES-2, ovarian ca; cited from earlier work
OAW42 = details: cell line OAW42, ovarian ca; cited from earlier work
ME43 = details: cell line ME43, melanoma; cited from earlier work
SKOV-3 = details: cell line SKOV-3, ovarian ca; cited from earlier work
R103 = details: cell line R103, breast ca; cited from earlier work
R193 = details: cell line R193, breast ca; cited from earlier work
SNU423 = details: cell line SNU423, HCC; cited from earlier work
Hep3B = details: cell line Hep3B, HCC; cited from earlier work
257p = details: cell line 257p, gastric ca; cited from earlier work
SNU182 = details: cell line SNU182, HCC; cited from earlier work
Du145 = details: cell line Du145, prostate ca; cited from earlier work
MeWo = details: cell line MeWo, melanoma; cited from earlier work
FU-OV-1 = details: cell line FU-OV-1, ovarian ca; cited from earlier work
BT20 = details: cell line BT20, breast ca; cited from earlier work
SNU475 = details: cell line SNU475, HCC; cited from earlier work
OVCAR3 = details: cell line OVCAR3, ovarian ca; cited from earlier work
SW13 = details: cell line SW13, adrenal cortex carcinoma; cited from earlier work
HT-29 = details: cell line HT-29, colon ca; cited from earlier work
HRT-18 = details: cell line HRT-18, colon ca; cited from earlier work
CX-2 = details: cell line CX-2, colon ca; cited from earlier work
DV-90 = details: cell line DV-90, lung ca; cited from earlier work
181/85p = details: cell line 181/85p, pancreas ca; cited from earlier work
A375 = details: cell line A375, melanoma; cited from earlier work
SKMel19 = details: cell line SKMel19, melanoma; cited from earlier work

In the case of `N.N.[Cl][Pt][Cl]` [Cisplatin, cisplatin], the “Cisplatin Resistant (Res) or Sensitive (Sen)” value (“Cisplatin Resistant” for short) (SNU449) is given as “Res”, the “Cisplatin Resistant” value (SKBR3) is given as “Res” and the “Cisplatin Resistant” value (C8161) is given as “Res”. For the same compound, the “Cisplatin Resistant” value (ES-2) was “Res”, the “Cisplatin Resistant” value (OAW42) was “Sen” and the “Cisplatin Resistant” value (ME43) was “Res”. For the same compound, the “Cisplatin Resistant” value (SKOV-3) was “Res”, the “Cisplatin Resistant” value (R103) was “Sen” and the “Cisplatin Resistant” value (R193) was “Sen”. For the same compound, the “Cisplatin Resistant” value (SNU423) was “Res”, the “Cisplatin Resistant” value (Hep3B) was “Res” and the “Cisplatin Resistant” value (257p) was “Res”. For the same compound, the “Cisplatin Resistant” value (SNU182) was “Res”, the “Cisplatin Resistant” value (Du145) was “Res” and the “Cisplatin Resistant” value (MeWo) was “Res”. The “Cisplatin Resistant” value (FU-OV-1) was “Sen”, the “Cisplatin Resistant” value (BT20) was “Sen” and the “Cisplatin Resistant” value (SNU475) was “Res”. The “Cisplatin Resistant” value (OVCAR3) was “Sen”, the “Cisplatin Resistant” value (SW13) was “Res” and the “Cisplatin Resistant” value (HT-29) was “Res”. For the same compound, the “Cisplatin Resistant” value (HRT-18) was “Res”, the “Cisplatin Resistant” value (CX-2) was “Res” and the “Cisplatin Resistant” value (DV-90) was “Sen”. For the same compound, the “Cisplatin Resistant” value (181/85p) was “Res”, the “Cisplatin Resistant” value (A375) was “Res” and the “Cisplatin Resistant” value (SKMel19) was “Res”.
